Structures can show the parent of a compound that is named as a salt.
Assay: Dynamic moisture sorption (DMS) assessment
Type: physicochemical
Details: exposed to up to 90% RH
Method: A dynamic moisture sorption (DMS) assessment (also known as a moisture sorption-desorption profile) was performed for samples of the crystalline diacetate salt using a VTI atmospheric microbalance, SGA-100 system (VTI Corp., Hialeah, Fla. 33016). A sample size of approximately 10 mg was used and the humidity was set at the ambient value at the start of the analysis. A typical DMS analysis consisted of three scans: ambient to 2% relative humidity (RH), 2% RH to 90% RH, 90% RH to 5% RH at a scan rate of 5% RH/step. The mass was measured every two minutes and the RH was changed to the next value (+/−5% RH) when the mass of the sample was stable to within 0.01% for 5 consecutive points.

Row | weight gain in DMS trace (reversible sorption/desorption profile) | Structure (SMILES)
1 | less than 18% | CN(CCN1CCC(OC(=O)Nc2ccccc2-c2ccccc2)CC1)C(=O)c1cccc(C(=O)NCCNCc2ccc(O)cc2)c1 [crystalline diacetate salt, biphenyl-2-ylcarbamic acid 1-[2-({3-[2-(4-hydroxybenzylamino)ethylcarbamoyl]benzoyl}methylamino)ethyl]piperidin-4-yl ester]
2 | less than 11% | CN(CCN1CCC(OC(=O)Nc2ccccc2-c2ccccc2)CC1)C(=O)c1cccc(C(=O)NCCNCc2ccc(O)cc2)c1 [crystalline dipropionate salt, Biphenyl-2-ylcarbamic Acid 1-[2-({3-[2-(4-Hydroxybenzylamino)ethylcarbamoyl]benzoyl}methylamino)ethyl]piperidin-4-yl Ester]
3 | less than 14% | CN(CCN1CCC(OC(=O)Nc2ccccc2-c2ccccc2)CC1)C(=O)c1cccc(C(=O)NCCNCc2ccc(O)cc2)c1 [crystalline monooxalate salt, Biphenyl-2-ylcarbamic Acid 1-[2-({3-[2-(4-Hydroxybenzylamino)ethylcarbamoyl]benzoyl}methylamino)ethyl]piperidin-4-yl Ester]
